Data: patent US7741341B2, “Benzimidazole-derivatives as factor Xa inhibitors” (sanofi-aventis Deutschland GmbH, priority 2003, dated 2010)

molecular target: T1, human factor Xa (Homo sapiens, UniProt P00742); assay: Factor Xa assay (chromogenic, substrate S-2765); assay type: biochemical; conditions: read-out: Ki(FXa)
T1 construct: human factor Xa (Enzyme Research Laboratories, Inc; South Bend, Ind.); purchased Enzyme Research Laboratories, Inc; South Bend, Ind
Protocol: Purified enzymes were used in chromogenic assays.
The IC50 was determined by combining in appropriate wells of a Costar half-area microtiter plate 25 μl human factor Xa (Enzyme Research Laboratories, Inc.; South Bend, Ind.) in TBS-PEG; 40 μl 10% (v/v) DMSO in TBS-PEG (uninhibited control) or various concentrations of the compound to be tested diluted in 10% (v/v) DMSO in TBS-PEG; and substrate S-2765 (N(α)-benzyloxycarbonyl-D-Arg-Gly-L-Arg-p-nitroanilide; Kabi Pharmacia, Inc.; Franklin, Ohio) in TBS-PEG.
The assay was performed by pre-incubating the compound of formula I plus enzyme for 10 min. Then the assay was initiated by adding substrate to obtain a final volume of 100 μl. […] The enzyme concentration was 0.5 nM and substrate concentration was 140 μM.

T1 sequence (P00742 235-488 limits assumed): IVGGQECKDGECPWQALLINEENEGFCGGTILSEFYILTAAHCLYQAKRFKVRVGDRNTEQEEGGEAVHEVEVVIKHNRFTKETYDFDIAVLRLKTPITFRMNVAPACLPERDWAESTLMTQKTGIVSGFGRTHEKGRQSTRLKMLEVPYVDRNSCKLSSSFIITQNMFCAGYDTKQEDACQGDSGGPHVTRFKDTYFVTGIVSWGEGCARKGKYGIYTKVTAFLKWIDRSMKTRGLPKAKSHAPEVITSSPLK
T1 sequence (P00742 41-179 partner limits assumed): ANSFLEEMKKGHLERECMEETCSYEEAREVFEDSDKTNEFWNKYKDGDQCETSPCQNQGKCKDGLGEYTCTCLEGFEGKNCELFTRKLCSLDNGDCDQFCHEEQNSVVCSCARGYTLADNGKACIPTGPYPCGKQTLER

| SMILES | Ki |
| --- | --- |
| CC(OC(=O)OC1CCCCC1)OC(=O)c1cccc2c1nc(C(=O)NC1CCN(C(C)C)CC1)n2Cc1cc(-c2ccc(Cl)s2)on1 (centres unmarked) [Example 21, 1-[5-(5-Chloro-thiophen-2-yl)-isoxazol-3-ylmethyl]-2-(1-isopropyl-piperidin-4-ylcarbamoyl)-1H-benzoimidazole-4-carboxylic acid 1-cyclohexyloxycarbonyloxy-ethyl ester] | 31 nM |
| CC(C)N1CCC(NC(=O)c2nc3c(C(=O)N(C)CCO)cccc3n2Cc2cc(-c3ccc(Cl)s3)on2)CC1 [Example 24, 1-[5-(5-Chloro-thiophen-2-yl)-isoxazol-3-ylmethyl]-1H-benzoimidazole-2,4-dicarboxylic acid 4-[(2-hydroxy-ethyl)-methyl-amide] 2-[(1-isopropyl-piperidin-4-yl)-amide]] | 26 nM |
| CC(C)N1CCC(NC(=O)c2nc3cc(C(=O)N4CCCOCC4)ccc3n2CC(=O)Nc2ccc(Cl)cn2)CC1 [Example 77, 1-[(5-Chloro-pyridin-2-ylcarbamoyl)-methyl]-5-([1,4]oxazepane-4-carbonyl)-1H-benzoimidazole-2-carboxylic acid (1-isopropyl-piperidin-4-yl)-amide] | 52.5 nM |
| COCCOc1cccc2c1nc(C(=O)Nc1ccc(N3CCOCC3=O)cc1)n2CC(=O)Nc1ccc(Cl)cn1 [Example 52, 1-[(5-Chloro-pyridin-2-ylcarbamoyl)-methyl]-4-(2-methoxy-ethoxy)-1H-benzoimidazole-2-carboxylic acid [4-(3-oxo-morpholin-4-yl)-phenyl]-amide] | 14 nM |
| COC(=O)c1ccc2c(c1)nc(C(=O)NC1CCN(C(C)C)CC1)n2CC(=O)Nc1ccc(Cl)cn1 [Example 17a, 1-[(5-Chloro-pyridin-2-ylcarbamoyl)-methyl]-2-(1-isopropyl-piperidin-4-ylcarbamoyl)-1H-benzoimidazole-5-carboxylic acid methyl ester] | 19.5 nM |
| CC(C)N1CCC(NC(=O)c2nc3c(C(=O)N(C)CCO)cccc3n2CC(=O)Nc2ccc(Cl)cn2)CC1 [Example 31, 1-[(5-Chloro-pyridin-2-ylcarbamoyl)-methyl]-1H-benzoimidazole-2,4-dicarboxylic acid 4-[(2-hydroxy-ethyl)-methyl-amide] 2-[(1-isopropyl-piperidin-4-yl)-amide]] | 15.5 nM |
| O=C(Cn1c(C(=O)Nc2ccc(N3CCOCC3=O)cc2)nc2ccccc21)Nc1ccc(Cl)cn1 [Example 35, 1-[(5-Chloro-pyridin-2-ylcarbamoyl)-methyl]-1H-benzoimidazole-2-carboxylic acid [4-(3-oxo-morpholin-4-yl)-phenyl]-amide] | 41 nM |
| O=C(Cn1c(C(=O)Nc2ccc(N3CCNCC3=O)cc2)nc2ccccc21)Nc1ccc(Cl)cn1 [Example 51, 1-[(5-Chloro-pyridin-2-ylcarbamoyl)-methyl]-1H-benzoimidazole-2-carboxylic acid [4-(2-oxo-piperazin-1-yl)-phenyl]-amide] | 510 nM |
| O=C1CCN(c2ccc(NC(=O)c3nc4ccccc4n3Cc3cc(-c4ccc(Cl)s4)on3)cc2)CC1 [Example 45, 1-[5-(5-Chloro-thiophen-2-yl)-isoxazol-3-ylmethyl]-1H-benzoimidazole-2-carboxylic acid [4-(4-oxo-piperidin-1-yl)-phenyl]-amide] | 210 nM |
| CC(C)N1CCC(NC(=O)c2nc3cc(C(=O)N(C)CCO)ccc3n2Cc2cc(-c3ccc(Cl)s3)on2)CC1 [Example 25, 1-[5-(5-Chloro-thiophen-2-yl)-isoxazol-3-ylmethyl]-1H-benzoimidazole-2,5-dicarboxylic acid 5-[(2-hydroxy-ethyl)-methyl-amide] 2-[(1-isopropyl-piperidin-4-yl)-amide]] | 65 nM |
| CC(OC(=O)OC1CCCCC1)OC(=O)c1cccc2c1nc(C(=O)NC1CCN(C(C)C)CC1)n2CC(=O)Nc1ccc(Cl)cn1 (centres unmarked) [Example 34, 1-[(5-Chloro-pyridin-2-ylcarbamoyl)-methyl]-2-(1-isopropyl-piperidin-4-ylcarbamoyl)-1H-benzoimidazole-4-carboxylic acid 1-cyclohexyloxycarbonyloxy-ethyl ester] | 19.5 nM |
| CC(C)N1CCC(NC(=O)c2nc3c(C(=O)N4CCOCC4)cccc3n2CC(=O)Nc2ccc(Cl)cn2)CC1 [Example 73, 1-[(5-Chloro-pyridin-2-ylcarbamoyl)-methyl]-4-(morpholine-4-carbonyl)-1H-benzoimidazole-2-carboxylic acid (1-isopropyl-piperidin-4-yl)-amide] | 19 nM |
| CC(C)N1CCC(NC(=O)c2nc3cccnc3n2Cc2cc(-c3ccc(Cl)s3)on2)CC1 [Example 14, 3-[5-(5-Chloro-thiophen-2-yl)-isoxazol-3-ylmethyl]-3H-imidazo[4,5-b]pyridine-2-carboxylic acid (1-isopropyl-piperidin-4-yl)-amide] | 2390 nM |
| CC(C)N1CCC(NC(=O)c2nc3ccc(C(=O)NCCO)cc3n2CC(=O)Nc2ccc(Cl)cn2)CC1 [Example 57, 3-[(5-Chloro-pyridin-2-ylcarbamoyl)-methyl]-3H-benzoimidazole-2,5-dicarboxylic acid 5-[(2-hydroxy-ethyl)-amide]2-[(1-isopropyl-piperidin-4-yl)-amide]] | 585 nM |
| CC(C)N1CCC(NC(=O)c2nc3cc(C(=O)N4CC(O)C4)ccc3n2Cc2cc(-c3ccc(Cl)s3)on2)CC1 [Example 26, 1-[5-(5-Chloro-thiophen-2-yl)-isoxazol-3-ylmethyl]-5-(3-hydroxy-azetidine-1-carbonyl)-1H-benzoimidazole-2-carboxylic acid (1-isopropyl-piperidin-4-yl)-amide] | 18.5 nM |

These reach a lower Ki. Values come first.

| Ki | SMILES |
| --- | --- |
| 12 nM | O=C(Nc1ccc(-n2ccc(=O)cc2)cc1)c1nc2ccccc2n1Cc1cc(-c2ccc(Cl)s2)on1 [Example 37, 1-[5-(5-Chloro-thiophen-2-yl)-isoxazol-3-ylmethyl]-1H-benzoimidazole-2-carboxylic acid [4-(4-oxo-4H-pyridin-1-yl)-phenyl]-amide] |
| 11.5 nM | CC(C)N1CCC(NC(=O)c2nc3ccc(S(=O)(=O)CCO)cc3n2Cc2cc(-c3ccc(Cl)s3)on2)CC1 [Example 29b, 1-[5-(5-Chloro-thiophen-2-yl)-isoxazol-3-ylmethyl]-6-(2-hydroxy-ethanesulfonyl)-1H-benzoimidazole-2-carboxylic acid (1-isopropyl-piperidin-4-yl)-amide] |
| 11 nM | CC(C)N1CCC(NC(=O)c2nc3c(C(=O)O)cccc3n2CC(=O)Nc2ccc(Cl)cn2)CC1 [Example 16, 1-[(5-Chloro-pyridin-2-ylcarbamoyl)-methyl]-2-(1-isopropyl-piperidin-4-ylcarbamoyl)-1H-benzoimidazole-4-carboxylic acid] |
| 9 nM | CC(C)N1CCC(NC(=O)c2nc3c(C(=O)NCCO)cccc3n2CC(=O)Nc2ccc(Cl)cn2)CC1 [Example 30, 1-[(5-Chloro-pyridin-2-ylcarbamoyl)-methyl]-1H-benzoimidazole-2,4-dicarboxylic acid 4-[(2-hydroxy-ethyl)-amide] 2-[(1-isopropyl-piperidin-4-yl)-amide]] |
| 8.5 nM | CC(C)N1CCC(NC(=O)c2nc3c(C(=O)N4CCC(F)(F)CC4)cccc3n2CC(=O)Nc2ccc(Cl)cn2)CC1 [Example 76, 1-[(5-Chloro-pyridin-2-ylcarbamoyl)-methyl]-4-(4,4-difluoro-piperidine-1-carbonyl)-1H-benzoimidazole-2-carboxylic acid (1-isopropyl-piperidin-4-yl)-amide] |
| 8 nM | CC(C)N1CCC(NC(=O)c2nc3c(C(=O)N4CC(O)C4)cccc3n2Cc2cc(-c3ccc(Cl)s3)on2)CC1 [Example 23, 1-[5-(5-Chloro-thiophen-2-yl)-isoxazol-3-ylmethyl]-4-(3-hydroxy-azetidine-1-carbonyl)-1H-benzoimidazole-2-carboxylic acid (1-isopropyl-piperidin-4-yl)-amide] |
| 6.5 nM | COCCOc1cccc2c1nc(C(=O)NC1CCN(C(C)C)CC1)n2CC(=O)Nc1ccc(Cl)cn1 [Example 108, 1-[(5-Chloro-pyridin-2-ylcarbamoyl)-methyl]-4-(2-methoxy-ethoxy)-1H-benzoimidazole-2-carboxylic acid (1-isopropyl-piperidin-4-yl)-amide] |
| 4 nM | COC(=O)c1cccc2c1nc(C(=O)NC1CCN(C(C)C)CC1)n2Cc1cc(-c2ccc(Cl)s2)on1 [Example 11a, 1-[5-(5-Chloro-thiophen-2-yl)-isoxazol-3-ylmethyl]-2-(1-isopropyl-piperidin-4-ylcarbamoyl)-1H-benzoimidazole-4-carboxylic acid methyl ester] |
| 3 nM | CC(C)N1CCC(NC(=O)c2nc3c(C(=O)O)cccc3n2Cc2cc(-c3ccc(Cl)s3)on2)CC1 [Example 12, 1-[5-(5-Chloro-thiophen-2-yl)-isoxazol-3-ylmethyl]-2-(1-isopropyl-piperidin-4-ylcarbamoyl)-1H-benzoimidazole-4-carboxylic acid] |
| 2.5 nM | COC(=O)c1ccc2c(c1)nc(C(=O)NC1CCN(C(C)C)CC1)n2Cc1cc(-c2ccc(Cl)s2)on1 [Example 5a, 1-[5-(5-Chloro-thiophen-2-yl)-isoxazol-3-ylmethyl]-2-(1-isopropyl-piperidin-4-ylcarbamoyl)-1H-benzoimidazole-5-carboxylic acid methyl ester] |
| 2 nM | O=C(Nc1ccc(-n2ccncc2=O)cc1)c1nc2ccccc2n1Cc1cc(-c2ccc(Cl)s2)on1 [Example 48, 1-[5-(5-Chloro-thiophen-2-yl)-isoxazol-3-ylmethyl]-1H-benzoimidazole-2-carboxylic acid [4-(2-oxo-2H-pyrazin-1-yl)-phenyl]-amide] |
